“And” between values parts separate entries of the source, which are not always exact repeats. Equal entries are not always repeated.
Settings: for viscosity / mass density / speed of sound: 102 kPa, Liquid; for viscosity: Concentric cylinders viscometry; for mass density: Vibrating tube method; for speed of sound: Frequency=3 MHz, Single path-length method; for surface tension liquid-gas: Pendant drop shape

CC(CC(C)(C)C)CC(C)(C)CC(C)(C)C (stereo not given) [2,2,4,4,6,8,8-heptamethylnonane]
Settings | mass density [kg/m3] | speed of sound [m/s] | surface tension liquid-gas [mN/m] | viscosity [mPa·s]
253.15 K | 811.4 | – | – | 14.09
288.15 K | 787.76 | 1305.1 | – | –
293.15 K | 784.41 | 1285.9 | – | 3.75
294.7 K | – | – | 24.2 | –
303.15 K | 777.73 | 1248.3 | – | 2.97
313.15 K | 770.99 | 1211.7 | – | 2.4
323.15 K | 764.27 | 1175.9 | – | 1.97
333.15 K | 757.53 | 1141.3 | – | 1.65

CC(CC(C)(C)C)CC(C)(C)C [2,2,4,6,6-pentamethylheptane]
Settings | mass density [kg/m3] | speed of sound [m/s] | surface tension liquid-gas [mN/m] | viscosity [mPa·s]
253.15 K | 775.8 | – | – | 3.08
288.15 K | 748.8 | 1223.7 | – | –
293.15 K | 745.2 | 1203.8 | – | 1.31
294 K | – | – | 22.1 | –
303.15 K | 737.9 | 1164.7 | – | 1.13
313.15 K | 730.6 | 1126.5 | – | 0.955
323.15 K | 723.2 | 1089.1 | – | 0.849
333.15 K | 715.8 | 1052.7 | – | 0.744

CCCCc1ccccc1 [butylbenzene]
Settings | mass density [kg/m3] | speed of sound [m/s] | surface tension liquid-gas [mN/m] | viscosity [mPa·s]
253.15 K | 892.6 | – | – | 2.21
288.15 K | 864.47 | 1373.7 | – | –
293.15 K | 860.17 | 1353.2 | – | 1
295 K | – | – | 29 | –
303.15 K | 852.13 | 1314.3 | – | 0.88
313.15 K | 844.07 | 1276.1 | – | 0.775
323.15 K | 835.98 | 1238.4 | – | 0.687
333.15 K | 827.86 | 1201.5 | – | 0.615

CCCCCCc1ccccc1 [hexylbenzene]
Settings | mass density | speed of sound | surface tension liquid-gas [mN/m] | viscosity
253.15 K | 888.9 kg/m3 and 889.1 kg/m3 | – | – | 4.56 mPa·s and 4.63 mPa·s
288.15 K | 862.3 kg/m3 and 862.4 kg/m3 | 1395.8 m/s and 1395.6 m/s | – | –
293.15 K | 858.5 kg/m3 and 858.6 kg/m3 | 1376 m/s and 1376.5 m/s | – | 1.64 mPa·s and 1.66 mPa·s
295 K | – | – | 29.3 | –
303.15 K | 850.9 kg/m3 and 851 kg/m3 | 1338.1 m/s and 1338.7 m/s | – | 1.39 mPa·s and 1.41 mPa·s
313.15 K | 843.3 kg/m3 and 843.4 kg/m3 | 1301.1 m/s and 1301.6 m/s | – | 1.17 mPa·s and 1.19 mPa·s
323.15 K | 845.7 kg/m3 and 835.8 kg/m3 | 1264.7 m/s and 1265.3 m/s | – | 1.03 mPa·s and 1.04 mPa·s
333.15 K | 828.1 kg/m3 and 828.2 kg/m3 | 1229.4 m/s and 1229.8 m/s | – | 0.9 mPa·s

Reference: the NIST ThermoML archive (doi:10.1021/acs.jced.8b00387)
